Source: patent US8192962B2, “Processes for detecting toxic substances” (Daikin Industries, Ltd., priority 2001, dated 2012)

Test system: Mitochondria-located protein genes
Experiment: DNA chip mRNA expression in yeast, mitochondria-located protein genes (Table 2)
Type: cell-based, Saccharomyces cerevisiae S288C
Conditions: cells incubated two hours with the chemical substance
Method in brief: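 Ratios compare mRNA levels in stressed and control S. cerevisiae. Each toxicant was applied for two hours to log-phase cultures at 25° C. at a sub-lethal, growth-inhibiting level; fluorescent cDNA (Cy3- or Cy5-dUTP) was hybridized to a genome-wide yeast chip for over 12 h at 65° C.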

[Cl][Hg][Cl] [(3), HgCl2]
The level of expressed mRNA in the presence of chemical substance/The level of expressed mRNA in the absence of chemical substance (yeast gene YJR121W): 3.3
The level of expressed mRNA in the presence of chemical substance/The level of expressed mRNA in the absence of chemical substance (yeast gene YKL003C): 0.8
The level of expressed mRNA in the presence of chemical substance/The level of expressed mRNA in the absence of chemical substance (yeast gene YKL016C): 0.7
The level of expressed mRNA in the presence of chemical substance/The level of expressed mRNA in the absence of chemical substance (yeast gene YKL141W): 4.7
The level of expressed mRNA in the presence of chemical substance/The level of expressed mRNA in the absence of chemical substance (yeast gene YKL142W): 3.1
The level of expressed mRNA in the presence of chemical substance/The level of expressed mRNA in the absence of chemical substance (yeast gene YKL148C): 3.7
The level of expressed mRNA in the presence of chemical substance/The level of expressed mRNA in the absence of chemical substance (yeast gene YKL170W): 0.5
The level of expressed mRNA in the presence of chemical substance/The level of expressed mRNA in the absence of chemical substance (yeast gene YKL194C): 0.8
The level of expressed mRNA in the presence of chemical substance/The level of expressed mRNA in the absence of chemical substance (yeast gene YKR066C): 5.5
The level of expressed mRNA in the presence of chemical substance/The level of expressed mRNA in the absence of chemical substance (yeast gene YLL041C): 4.6
The level of expressed mRNA in the presence of chemical substance/The level of expressed mRNA in the absence of chemical substance (yeast gene YLR038C): 0.6
The level of expressed mRNA in the presence of chemical substance/The level of expressed mRNA in the absence of chemical substance (yeast gene YLR259C): 3.1
The level of expressed mRNA in the presence of chemical substance/The level of expressed mRNA in the absence of chemical substance (yeast gene YLR295C): 1.1
The level of expressed mRNA in the presence of chemical substance/The level of expressed mRNA in the absence of chemical substance (yeast gene YLR304C): 5.0
The level of expressed mRNA in the presence of chemical substance/The level of expressed mRNA in the absence of chemical substance (yeast gene YLR348C): 1.2
The level of expressed mRNA in the presence of chemical substance/The level of expressed mRNA in the absence of chemical substance (yeast gene YLR395C): 2.2
The level of expressed mRNA in the presence of chemical substance/The level of expressed mRNA in the absence of chemical substance (yeast gene YML054C): 1.3
The level of expressed mRNA in the presence of chemical substance/The level of expressed mRNA in the absence of chemical substance (yeast gene YML120C): 1.9
The level of expressed mRNA in the presence of chemical substance/The level of expressed mRNA in the absence of chemical substance (yeast gene YML129C): 0.9
The level of expressed mRNA in the presence of chemical substance/The level of expressed mRNA in the absence of chemical substance (yeast gene YMR023C): 0.5
The level of expressed mRNA in the presence of chemical substance/The level of expressed mRNA in the absence of chemical substance (yeast gene YMR035W): 1.5
The level of expressed mRNA in the presence of chemical substance/The level of expressed mRNA in the absence of chemical substance (yeast gene YMR083W): 2.6
The level of expressed mRNA in the presence of chemical substance/The level of expressed mRNA in the absence of chemical substance (yeast gene YMR089C): 0.9
The level of expressed mRNA in the presence of chemical substance/The level of expressed mRNA in the absence of chemical substance (yeast gene YMR152W): 1.8
The level of expressed mRNA in the presence of chemical substance/The level of expressed mRNA in the absence of chemical substance (yeast gene YMR203W): 3.0
The level of expressed mRNA in the presence of chemical substance/The level of expressed mRNA in the absence of chemical substance (yeast gene YMR267W): 0.7
The level of expressed mRNA in the presence of chemical substance/The level of expressed mRNA in the absence of chemical substance (yeast gene YNL055C): 5.5
The level of expressed mRNA in the presence of chemical substance/The level of expressed mRNA in the absence of chemical substance (yeast gene YNL071W): 1.7
The level of expressed mRNA in the presence of chemical substance/The level of expressed mRNA in the absence of chemical substance (yeast gene YNL073W): 0.9
The level of expressed mRNA in the presence of chemical substance/The level of expressed mRNA in the absence of chemical substance (yeast gene YNL104C): 3.0
The level of expressed mRNA in the presence of chemical substance/The level of expressed mRNA in the absence of chemical substance (yeast gene YNL256W): 0.6
The level of expressed mRNA in the presence of chemical substance/The level of expressed mRNA in the absence of chemical substance (yeast gene YOL096C): 1.2
The level of expressed mRNA in the presence of chemical substance/The level of expressed mRNA in the absence of chemical substance (yeast gene YOR020C): 1.7
The level of expressed mRNA in the presence of chemical substance/The level of expressed mRNA in the absence of chemical substance (yeast gene YOR037W): 0.6
The level of expressed mRNA in the presence of chemical substance/The level of expressed mRNA in the absence of chemical substance (yeast gene YOR100C): 1.6
The level of expressed mRNA in the presence of chemical substance/The level of expressed mRNA in the absence of chemical substance (yeast gene YOR130C): 1.4
The level of expressed mRNA in the presence of chemical substance/The level of expressed mRNA in the absence of chemical substance (yeast gene YOR142W): 3.4
The level of expressed mRNA in the presence of chemical substance/The level of expressed mRNA in the absence of chemical substance (yeast gene YOR150W): 1.0
The level of expressed mRNA in the presence of chemical substance/The level of expressed mRNA in the absence of chemical substance (yeast gene YOR176W): 2.7
The level of expressed mRNA in the presence of chemical substance/The level of expressed mRNA in the absence of chemical substance (yeast gene YOR187W): 1.9
The level of expressed mRNA in the presence of chemical substance/The level of expressed mRNA in the absence of chemical substance (yeast gene YOR316C): 1.5
The level of expressed mRNA in the presence of chemical substance/The level of expressed mRNA in the absence of chemical substance (yeast gene YPL040C): 0.8
The level of expressed mRNA in the presence of chemical substance/The level of expressed mRNA in the absence of chemical substance (yeast gene YPL134C): 1.6
The level of expressed mRNA in the presence of chemical substance/The level of expressed mRNA in the absence of chemical substance (yeast gene YPL135W): 2.5
The level of expressed mRNA in the presence of chemical substance/The level of expressed mRNA in the absence of chemical substance (yeast gene YPL215W): 1.0
The level of expressed mRNA in the presence of chemical substance/The level of expressed mRNA in the absence of chemical substance (yeast gene YPL262W): 3.8
The level of expressed mRNA in the presence of chemical substance/The level of expressed mRNA in the absence of chemical substance (yeast gene YPR024W): 1.3
The level of expressed mRNA in the presence of chemical substance/The level of expressed mRNA in the absence of chemical substance (yeast gene YPR037C): 1.6
The level of expressed mRNA in the presence of chemical substance/The level of expressed mRNA in the absence of chemical substance (yeast gene YPR047W): 0.9
The level of expressed mRNA in the presence of chemical substance/The level of expressed mRNA in the absence of chemical substance (yeast gene YPR134W): 0.8
